Experiments:
[1] = tested on: Severe acute respiratory syndrome coronavirus 2; assay: Inhibition of SARS-CoV-2 main protease expressed in expressed in BL21(DE3) Escherichia Coli […] by measuring ratio of K2/Ki by FRET assay
[2] = Inhibition of SARS-CoV-2 main protease expressed in expressed in BL21(DE3) Escherichia Coli […] by FRET assay; parameters: species or system Severe acute respiratory syndrome coronavirus 2

## CC(C)C[C@H](NC(=O)OCc1ccccc1)C(=O)N[C@@H](CC1CCNC1=O)C(O)S(=O)(=O)O (stereo partly drawn)
[1]
  Ratio: 40800 M⁻¹ s⁻¹

## CC(C)(C)NC(=O)N[C@H](C(=O)N1C[C@H]2[C@@H]([C@H]1C(=O)NC(CC1CCC1)C(=O)C(N)=O)C2(C)C)C(C)(C)C (stereo partly drawn) [BOCEPREVIR]
[2]
  EC50: 1310 nM
  Ki: 1180 nM

Reference: ChEMBL document CHEMBL4665729, “The SARS-CoV-2 main protease as drug target” (Bioorg Med Chem Lett, 2020)
